Patent publication US10940139B2, “Compounds that interact with the Ras superfamily for the treatment of cancers, inflammatory diseases, rasopathies, and fibrotic disease” (Shy Therapeutics LLC, priority 2017, dated 2021)

What was measured:
[1] = target: Rac-1 (Homo sapiens (Human), UniProt P63000); assay: Rac inhibition assay (labeled GTP); type: binding; conditions: read-out: Rac-1 % Inh.
[2] = target: Rho-A (Homo sapiens (Human), UniProt P61586); assay: Rho inhibition assay (labeled GTP); type: binding; conditions: read-out: Rho-A % Inh.
Sequence of Rho-A (P61586 whole entry, the tested form may be a part): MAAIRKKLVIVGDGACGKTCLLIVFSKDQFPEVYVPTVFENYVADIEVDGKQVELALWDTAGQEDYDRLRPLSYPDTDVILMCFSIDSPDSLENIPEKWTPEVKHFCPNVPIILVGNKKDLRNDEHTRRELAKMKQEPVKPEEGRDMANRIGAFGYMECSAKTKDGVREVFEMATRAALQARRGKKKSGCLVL

[3] = target: KRas G12D/Q61H double mutant (Homo sapiens (Human), UniProt P01116, G12D/Q61H); assay: Ras GTP binding domain inhibition assay (labeled GTP); conditions: at 20 μM; read-out: KRas G12D Q61H % Inh.
Sequence of KRas G12D/Q61H double mutant (P01116-2 other isoform, or with tags, fused parts or gaps G12D/Q61H): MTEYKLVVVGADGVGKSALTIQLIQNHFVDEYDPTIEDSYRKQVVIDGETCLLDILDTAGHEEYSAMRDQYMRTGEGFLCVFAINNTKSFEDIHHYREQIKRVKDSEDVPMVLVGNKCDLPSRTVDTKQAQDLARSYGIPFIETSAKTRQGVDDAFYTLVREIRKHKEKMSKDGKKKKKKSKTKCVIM
How it was run: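 Labelled-GTP binding: plate-captured His-KRas protein was pre-exposed to compound for 3 h at room temperature (single 20 μM point or dilution series, 1% DMSO, Tris pH 7.5/MgCl2/DTT buffer). Cy3- or Cy5-GTP was then added for 45 min. Washed wells were read for retained fluorescence to give inhibition or IC50.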

Row | Compound | inhibition at 20 µM [1] [%] | inhibition at 20 µM [2] [%] | inhibition at 20 µM [3] [%]
1 | COCCCCNC(=O)c1csc2nc(-c3ccccn3)nc(N3CCOCC3)c12 [drawing 3678] | 51 to 75 | 51 to 75 | 1 to 25
2 | COc1ccc(C2CN(C(=O)c3csc4c(O)nc(-c5ccccn5)nc34)CCN2)cc1 (stereo not drawn) [drawing 3663] | 76 to 100 | 76 to 100 | 1 to 25
3 | COc1cnc(C2(N)CCCC2)nc1O [drawing 3809] | 1 to 25 | 1 to 25 | 1 to 25
4 | CCn1nc(C)cc1-c1csc2c(O)nc(-c3ccccn3)nc12 [drawing 3775] | 51 to 75 | 76 to 100 | 51 to 75
5 | O=C(c1csc2c(O)nc(-c3ccccn3)nc12)N1CCNC(Cc2ccccc2)C1 (stereo not drawn) [drawing 3667] | 76 to 100 | 76 to 100 | 25 to 50
6 | O=C(c1csc2c(O)nc(-c3ccccn3)nc12)N1CCN(c2ccc(F)cc2F)CC1 [drawing 3649] | 76 to 100 | 51 to 75 | 51 to 75
7 | N#Cc1cccc(N2CCN(C(=O)c3csc4c(O)nc(-c5ccccn5)nc34)CC2)c1 [drawing 3644] | 51 to 75 | 51 to 75 | 1 to 25
8 | CC(c1ccccc1)N1CCN(C(=O)c2csc3c(O)nc(-c4ccccn4)nc23)CC1 (stereo not drawn) [drawing 3693] | 76 to 100 | 76 to 100 | 51 to 75
9 | COc1cnc(C(C)(C)N)nc1O [drawing 3810] | 1 to 25 | 0 | 1 to 25
10 | O=C(c1csc2c(O)nc(-c3ccccn3)nc12)N1CCN(Cc2ccc(O)c(Cl)c2)CC1 [drawing 3654] | 76 to 100 | 76 to 100 | 25 to 50
11 | Oc1nc(-c2ccccn2)nc2c(-c3ccccc3)csc12 [drawing 3625] | 51 to 75 | 51 to 75 | 25 to 50
12 | COc1ccc(C2CN(C(=O)c3csc4c(O)nc(-c5ccccn5)nc34)CCO2)cc1 (stereo not drawn) [drawing 3657] | 25 to 50 | 25 to 50 | 25 to 50
13 | COc1ncc(CCNC(=O)c2csc3nc(-c4ccccn4)nc(N4CCOCC4)c23)cn1 [drawing 3637] | 51 to 75 | 51 to 75 | 1 to 25
14 | COc1ccc(N2CCN(C(=O)c3csc4c(O)nc(-c5ccccn5)nc34)CC2)c(OC)c1 [drawing 3648] | 76 to 100 | 51 to 75 | 25 to 50
15 | N#Cc1ccc(CCNC(=O)c2csc3nc(-c4ccccn4)nc(N4CCOCC4)c23)cc1 [drawing 3639] | 25 to 50 | 25 to 50 | 1 to 25
16 | O=C(c1csc2c(O)nc(-c3ccccn3)nc12)N1CCOC(Cc2ccccc2)C1 (stereo not drawn) [drawing 3660] | 76 to 100 | 76 to 100 | 25 to 50
17 | COc1ccc(CCN(C)C(=O)c2csc3nc(-c4ccccn4)nc(N4CCOCC4)c23)cn1 [drawing 3635] | 25 to 50 | 25 to 50 | 0
18 | O=C(c1csc2c(O)nc(-c3ccccn3)nc12)N1CCN(c2ccc(O)c(Cl)c2)CC1 [drawing 3692] | 76 to 100 | 76 to 100 | 51 to 75
19 | O=C(NCCc1ccc(O)c(O)c1)c1csc2nc(-c3ccccn3)nc(N3CCOCC3)c12 [drawing 3674] | 25 to 50 | 25 to 50 | 0
20 | Cc1ccccc1C1CN(C(=O)c2csc3c(O)nc(-c4ccccn4)nc23)CCN1 (stereo not drawn) [drawing 3664] | 76 to 100 | 76 to 100 | 25 to 50
21 | Oc1nc(-c2ccccn2)nc2c(C3CCCCC3)csc12 [drawing 3830] | 25 to 50 | 51 to 75 | 25 to 50
22 | CC(C)(C(=O)Nc1nc(-c2ccccn2)nc2sccc12)c1ccc(C#N)cc1 [drawing 3641] | 76 to 100 | 51 to 75 | 0
23 | O=C(c1csc2c(O)nc(-c3ccccn3)nc12)N1CCOC(c2ccccc2)C1 (stereo not drawn) [drawing 3655] | 25 to 50 | 51 to 75 | 1 to 25
24 | COc1ccnc(-c2nc(O)c3c(CN)csc3n2)c1 | 51 to 75 | 25 to 50 | 0
25 | O=C(NCCc1cccnc1)c1csc2nc(-c3ccccn3)nc(N3CCOCC3)c12 [drawing 3633] | 51 to 75 | 51 to 75 | 1 to 25

More lines, now with the values ahead:

Row | inhibition at 20 µM [1] [%] | inhibition at 20 µM [2] [%] | inhibition at 20 µM [3] [%] | Compound
26 | 51 to 75 | 51 to 75 | 25 to 50 | COc1ccnc(-c2nc(O)c3c(C(F)(F)F)csc3n2)c1 [drawing 3705]
27 | 25 to 50 | 1 to 25 | 0 | Oc1nc(-c2ccccn2)nc2c(Br)c(-c3ccccc3)sc12 [drawing 3871]
28 | 51 to 75 | 51 to 75 | 25 to 50 | COC(=O)c1sc2c(O)nc(-c3ccccn3)nc2c1C [drawing 3795]
29 | 0 | 0 | 0 | Nc1nc(O)c2sc(-c3cccc(C(=O)NCc4ncc[nH]4)c3)cc2n1 [drawing 3863]
30 | 25 to 50 | 51 to 75 | 25 to 50 | Cc1sc2nc(-c3ccccn3)nc(N)c2c1Br [drawing 3803]
31 | 76 to 100 | 76 to 100 | 25 to 50 | Oc1nc(-c2ccccn2)nc2c(CC3CNC3)csc12 [drawing 3837]
32 | 1 to 25 | 1 to 25 | 1 to 25 | Cn1ccnc1-c1nc(O)c2c(-c3ccccc3)c(-c3ccccc3)sc2n1 [drawing 3854]
33 | 51 to 75 | 51 to 75 | 25 to 50 | Nc1nc(-c2ccccn2)nc2scc(C(=O)O)c12 [drawing 3778]
34 | 76 to 100 | 51 to 75 | 51 to 75 | COc1cccc(CC2CN(C(=O)c3csc4c(O)nc(-c5ccccn5)nc34)CCN2)c1 (stereo not drawn) [drawing 3702]
35 | 51 to 75 | 51 to 75 | 1 to 25 | Oc1nc(-c2ccccn2)nc2cc(-c3ccccc3Cl)sc12 [drawing 3874]
36 | 51 to 75 | 51 to 75 | 1 to 25 | COc1ccc2c(c1)CCC2C(=O)Nc1ccnc(-c2ccccn2)n1 (stereo not drawn) [drawing 3684]
37 | 0 | 1 to 25 | 1 to 25 | COc1ccc(-c2cc3nc(-c4ccccn4)nc(O)c3s2)cc1 [drawing 3881]
38 | 76 to 100 | 76 to 100 | 51 to 75 | O=C(c1csc2c(O)nc(-c3ccccn3)nc12)N1CCNC(Cc2ccc(F)cc2)C1 (stereo not drawn) [drawing 3703]
39 | 0 | 0 | 1 to 25 | COc1nc(-c2ccccn2)nc2c(C3CC3)csc12 [drawing 3808]
40 | 76 to 100 | 51 to 75 | 1 to 25 | COCCCCN(C)C(=O)c1csc2nc(-c3ccccn3)nc(N3CCOCC3)c12 [drawing 3679]
41 | 25 to 50 | 1 to 25 | 25 to 50 | Cc1cc(OC(F)F)ccc1-c1csc2c(O)nc(-c3ccccn3)nc12 [drawing 3750]
42 | 25 to 50 | 25 to 50 | 25 to 50 | Cc1sc2c(N)nc(-c3ccccn3)nc2c1-c1ccccc1 [drawing 3709]
43 | 76 to 100 | 76 to 100 | 51 to 75 | O=C(c1cc2nc(-c3ccccn3)nc(O)c2s1)N1CCOC(c2ccccc2)C1 (stereo not drawn) [drawing 3714]
44 | 76 to 100 | 51 to 75 | 1 to 25 | CC(C(=O)Nc1ccnc(-c2ccccn2)n1)c1ccc(C#N)cc1 (stereo not drawn) [drawing 3683]
45 | 0 | 0 | 1 to 25 | Cn1cnc(-c2nc(O)c3c(-c4ccccc4)c(-c4ccncc4)sc3n2)c1 [drawing 3846]
46 | 25 to 50 | 1 to 25 | 25 to 50 | COc1ccc(CCNC(=O)c2csc3nc(-c4ccccn4)nc(N4CCS(=O)(=O)CC4)c23)cn1 [drawing 3725]
47 | 76 to 100 | 51 to 75 | 0 | N#Cc1ccc(COCC(=O)Nc2ccnc(-c3ccccn3)n2)cc1 [drawing 3685]
48 | 76 to 100 | 76 to 100 | 25 to 50 | O=C(NCCc1cccnc1)c1cc2nc(-c3ccccn3)nc(O)c2s1 [drawing 3715]
49 | 51 to 75 | 51 to 75 | 25 to 50 | Cc1c(Br)sc2c(O)nc(-c3ccccn3)nc12 [drawing 3793]
50 | 76 to 100 | 76 to 100 | 51 to 75 | COc1nc(-c2ccccn2)nc2c(C3CCC3)csc12 [drawing 3799]
51 | 76 to 100 | 76 to 100 | 51 to 75 | COC(=O)c1c(C)sc2c(N)nc(-c3ccccn3)nc12 [drawing 3818]
52 | 25 to 50 | 51 to 75 | 25 to 50 | Oc1nc(-c2ccccn2)nc2c(-c3ccc(Cl)c(Cl)c3)csc12 [drawing 3781]
53 | 76 to 100 | 51 to 75 | 1 to 25 | CNS(=O)(=O)CCCNC(=O)c1csc2nc(-c3ccccn3)nc(N3CCOCC3)c12 [drawing 3680]
